Experimental findings from patent US20230295182A1, “SPIRO DERIVATIVES OF ALPHA-D-GALACTOPYRANOSIDES” (Idorsia Pharmaceuticals Ltd, priority 2020, published 2023) are described below.

Usually IC50 stands for the concentration that gives 50% inhibition.

For one experiment, the target named is human Gal-1 (hGal-1) (Homo sapiens, UniProt P09382). Briefly: Competitive binding assay: biotinylated hGal-1 to microplate-adsorbed asialofetuin (ASF). To be noted: Activities on hGal-1; binding to ASF-coated plates, 3 hours at 4° C.; mean values; read-out: Gal-1 IC50. An outline of the steps:
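Plate-adsorbed asialofetuin is incubated 3 h at 4 °C with biotinylated hGal-1, optionally its all-serine-substituted cysteine variant, plus compound dilutions. ABTS color after 1 h streptavidin-peroxidase (80 ng/mL) at 4 °C reports binding. Reported IC50 is a mean across repeat runs.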

A further experiment has as its target human Gal-3 (hGal-3) (Homo sapiens (Human), UniProt P17931). Briefly: Competitive binding assay: biotinylated hGal-3 to microplate-adsorbed asialofetuin (ASF). To be noted: Activity on hGal-3; binding to ASF-coated plates, 3 hours at 4° C.; mean values. An outline of the steps:
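Biotinylated hGal-3 (300-1000 ng/mL) binding to plate-adsorbed asialofetuin, with DMSO-diluted compound added, incubated 3 h at 4 °C. After washing, bound protein detected with streptavidin-peroxidase (80 ng/mL, 1 h, 4 °C) and ABTS substrate, read spectrophotometrically. IC50 given as mean of several measurements.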

human Gal-1 (hGal-1), sequence (P09382 2-135 limits assumed): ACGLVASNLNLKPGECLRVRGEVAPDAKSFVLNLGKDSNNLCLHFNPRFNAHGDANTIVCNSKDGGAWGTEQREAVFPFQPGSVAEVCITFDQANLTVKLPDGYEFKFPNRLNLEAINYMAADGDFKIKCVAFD
human Gal-3 (hGal-3), sequence (P17931 whole entry): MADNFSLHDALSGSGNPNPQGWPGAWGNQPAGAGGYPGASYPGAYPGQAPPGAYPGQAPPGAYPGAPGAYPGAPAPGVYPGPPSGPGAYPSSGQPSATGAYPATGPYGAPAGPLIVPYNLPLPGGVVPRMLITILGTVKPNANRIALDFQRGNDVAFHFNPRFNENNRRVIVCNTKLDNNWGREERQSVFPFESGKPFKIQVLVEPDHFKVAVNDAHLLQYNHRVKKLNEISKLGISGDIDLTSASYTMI

Consider `CO[C@@H]1[C@@H](n2cc(-c3cc(F)c(F)c(F)c3)nn2)[C@@H](O)[C@@H](CO)O[C@@H]1CC1=NOC2(CCC(=NO)CC2)C1` (stereo partly drawn) [Example 2.18, 3-(((2R,3R,4S,5R,6R)-5-hydroxy-6-(hydroxymethyl)-3-methoxy-4-(4-(3,4,5-trifluorophenyl)-1H-1,2,3-triazol-1-yl)tetrahydro-2H-pyran-2-yl)methyl)-1-oxa-2-azaspiro[4.5]dec-2-en-8-one oxime], for which the half-maximal inhibitory concentration (IC50) came out at 2900 nM at human Gal-1 (hGal-1) and 320 nM at human Gal-3 (hGal-3).

Consider `CO[C@@H]1[C@@H](n2cc(-c3cc(F)c(F)c(F)c3)nn2)[C@@H](O)[C@@H](CO)O[C@@H]1CC1=NOC2(CCC(N3CCOCC3)CC2)C1` (stereo partly drawn) [Example 2.19, (2R,3R,4S,5R,6R)-2-(hydroxymethyl)-5-methoxy-6-((8-morpholino-1-oxa-2-azaspiro[4.5]dec-2-en-3-yl)methyl)-4-(4-(3,4,5-trifluorophenyl)-1H-1,2,3-triazol-1-yl)tetrahydro-2H-pyran-3-ol], for which the results for the IC50 on human Gal-1 (hGal-1) and at human Gal-3 (hGal-3) were 1700 nM and 390 nM, respectively.

Take `CO[C@@H]1[C@@H](n2cc(-c3cc(F)c(F)c(F)c3)nn2)[C@@H](O)[C@@H](CO)O[C@@H]1CC1=NO[C@]2(CC[C@H](NCC(F)F)CC2)C1` [Example 2.20, (2R,3R,4S,5R,6R)-6-(((5r,8R)-8-((2,2-difluoroethyl)amino)-1-oxa-2-azaspiro[4.5]dec-2-en-3-yl)methyl)-2-(hydroxymethyl)-5-methoxy-4-(4-(3,4,5-trifluorophenyl)-1H-1,2,3-triazol-1-yl)tetrahydro-2H-pyran-3-ol]: the IC50 is 1800 nM at human Gal-1 (hGal-1) and 110 nM at human Gal-3 (hGal-3).

For the molecule `CO[C@@H]1[C@@H](n2cc(-c3cc(F)c(F)c(F)c3)nn2)[C@@H](O)[C@@H](CO)O[C@@H]1CC1=NO[C@]2(CC[C@@H](NCC(F)F)CC2)C1` [Example 2.21, (2R,3R,4S,5R,6R)-6-(((5s,8S)-8-((2,2-difluoroethyl)amino)-1-oxa-2-azaspiro[4.5]dec-2-en-3-yl)methyl)-2-(hydroxymethyl)-5-methoxy-4-(4-(3,4,5-trifluorophenyl)-1H-1,2,3-triazol-1-yl)tetrahydro-2H-pyran-3-ol], the IC50 at human Gal-1 (hGal-1) turned out to be 1600 nM; at human Gal-3 (hGal-3), 380 nM.

For `CO[C@@H]1[C@@H](n2cc(-c3cc(F)c(F)c(F)c3)nn2)[C@@H](O)[C@@H](CO)O[C@@H]1CC1=NO[C@]2(CC[C@H](NC3CC3)CC2)C1` [Example 2.22, (2R,3R,4S,5R,6R)-6-(((5r,8R)-8-(cyclopropylamino)-1-oxa-2-azaspiro[4.5]dec-2-en-3-yl)methyl)-2-(hydroxymethyl)-5-methoxy-4-(4-(3,4,5-trifluorophenyl)-1H-1,2,3-triazol-1-yl)tetrahydro-2H-pyran-3-ol], the IC50 on human Gal-1 (hGal-1) amounted to 1300 nM; on human Gal-3 (hGal-3) it was 140 nM.

As to `CO[C@@H]1[C@@H](n2cc(-c3cc(F)c(F)c(F)c3)nn2)[C@@H](O)[C@@H](CO)O[C@@H]1CC1=NO[C@]2(CC[C@@H](NC3CC3)CC2)C1` [Example 2.23, (2R,3R,4S,5R,6R)-6-(((5s,8S)-8-(cyclopropylamino)-1-oxa-2-azaspiro[4.5]dec-2-en-3-yl)methyl)-2-(hydroxymethyl)-5-methoxy-4-(4-(3,4,5-trifluorophenyl)-1H-1,2,3-triazol-1-yl)tetrahydro-2H-pyran-3-ol], the figures for the IC50 at human Gal-1 (hGal-1) and on human Gal-3 (hGal-3) were 1600 nM and 590 nM, respectively.

In the case of `Cc1ccc(-c2cn([C@H]3[C@@H](O)[C@@H](CO)O[C@H](CC4=NOC5(CCOCC5)C4)[C@@H]3OCC(=O)O)nn2)c(F)c1F` [Example 2.24, 2-(((2R,3R,4S,5R,6R)-2-((1,8-dioxa-2-azaspiro[4.5]dec-2-en-3-yl)methyl)-4-(4-(2,3-difluoro-4-methylphenyl)-1H-1,2,3-triazol-1-yl)-5-hydroxy-6-(hydroxymethyl)tetrahydro-2H-pyran-3-yl)oxy)acetic acid], the values for the IC50 at human Gal-1 (hGal-1) and on human Gal-3 (hGal-3) were 6700 nM and 80 nM, respectively.
